Assay results reported in US4929614A, “Benzodiazepines, process and intermediates for the preparation thereof and their application in therapy” (Jouveinal S.A., priority 1988, dated 1990).
Read-outs that look alike come from different tables or passages of the source.

How the values were obtained:
[1] = target: T1, CCK receptors of rat pancreas (Rattus norvegicus, UniProt P30551); experiment: Inhibition of binding of sulphated [125I]-CCK8 to receptors of rat pancreas plasma membranes; conditions: for ratio of the IC50 for the brain receptors to the IC50 for the pancreas receptors: guinea-pig brain / rat pancreas
T1 construct: of rat pancreas plasma membranes; from tissue; host or cells: rat pancreas plasma membranes (SD50 males; animals from IFFA CREDO)
T1 sequence (P30551 1-444): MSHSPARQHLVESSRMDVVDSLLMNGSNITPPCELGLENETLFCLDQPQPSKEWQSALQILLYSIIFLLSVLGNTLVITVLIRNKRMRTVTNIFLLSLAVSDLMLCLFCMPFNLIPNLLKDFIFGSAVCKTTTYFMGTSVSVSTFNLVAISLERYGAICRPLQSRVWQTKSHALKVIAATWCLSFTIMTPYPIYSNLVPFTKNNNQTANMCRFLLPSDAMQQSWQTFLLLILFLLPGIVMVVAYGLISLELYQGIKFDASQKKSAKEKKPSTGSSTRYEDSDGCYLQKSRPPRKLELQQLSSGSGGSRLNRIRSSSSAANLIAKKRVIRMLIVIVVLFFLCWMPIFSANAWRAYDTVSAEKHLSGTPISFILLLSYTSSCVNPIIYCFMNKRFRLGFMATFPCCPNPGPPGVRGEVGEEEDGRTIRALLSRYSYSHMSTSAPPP
From the text: of rat pancreas plasma membranes (SD50 males, IFFA CREDO, 200-225 g)

[2] = target: T2, CCK receptors of guinea-pig brain (Cavia porcellus, UniProt H0VZC5); experiment: Inhibition of binding of sulphated [125I]-CCK8 to receptors of guinea-pig brain membranes
T2 construct: of guinea-pig brain membranes; from tissue; host or cells: guinea-pig brain membranes (males; animals from COB LABO)
T2 sequence (H0VZC5 1-426): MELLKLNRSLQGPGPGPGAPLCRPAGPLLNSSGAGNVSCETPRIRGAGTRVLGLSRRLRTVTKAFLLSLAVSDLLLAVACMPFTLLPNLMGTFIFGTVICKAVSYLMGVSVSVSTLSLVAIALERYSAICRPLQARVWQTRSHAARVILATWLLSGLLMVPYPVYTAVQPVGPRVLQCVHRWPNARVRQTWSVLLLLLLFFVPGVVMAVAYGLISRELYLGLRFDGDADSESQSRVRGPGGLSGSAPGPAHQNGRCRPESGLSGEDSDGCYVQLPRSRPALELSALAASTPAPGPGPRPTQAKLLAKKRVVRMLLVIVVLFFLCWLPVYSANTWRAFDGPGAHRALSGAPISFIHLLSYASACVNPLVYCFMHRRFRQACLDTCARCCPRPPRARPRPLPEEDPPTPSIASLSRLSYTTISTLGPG
From the text: of guinea-pig brain membranes (males, COB LABO, 325-350 g) according to the protocol described by INNIS R. B. and SNYDER S. M., Eur. J. Pharmacol., 65, 123-124, 1980.

[3] = tested on: inhibition of gastric emptying caused by sulphated CCK-8; experiment: Gastric emptying model in mice: antagonism of the inhibition of gastric emptying caused by sulphated CCK-8; format: in vivo, mice (SWISS male); conditions: Mus musculus, sulphated CCK-8 80 μg/kg, sc
IRWIN's tests (behavior) = conditions: for IRWIN (first dose modifying one of the parameters of behavior): male mice; for selectivity ratio: mouse, in vivo
Procedure: The acute toxicity was evaluated and IRWIN's tests (IRWIN S., Psychopharmacologia, 13, 222-257, 1968) were performed in male mice (20-21 g).

Acute toxicity = conditions: mouse, in vivo, male mice
[4] = guinea-pig brain membranes, read-out: Binding (IC50) [125I]-CCK8-SO4 Brain

SMILES	IC50 [1] [nM]	ratio of the IC50 for the brain receptors to the IC50 for the pancreas receptors [1]	IC50 [2, 4] [nM]	IC50 [2] [nM]	ED50 [3] [mg/kg]	IRWIN (first dose modifying one of the parameters of behavior) (IRWIN's tests (behavior)) [mg/kg]	selectivity ratio (IRWIN's tests (behavior))	LD50 (Acute toxicity) [mg/kg]
O=C(NC1N=C(c2ccccc2F)c2cc(Cl)cc3c2N(CC3)C1=O)c1cc(Cl)cc(Cl)c1 (centres unmarked) [Im, 8-chloro-4-(3,5-dichlorobenzoylamino)-6-(2-fluorophenyl)-1,2,3,4-tetrahydropyrrolo[3,2,1-jk][1,4]benzodiazepin-3-one]	30.6	831.1	25400	–	–	–	–	–
O=C(NC1N=C(c2ccccc2)c2cccc3c2N(CCC3)C1=O)c1cc2ccccc2[nH]1 (centres unmarked) [In, 5-(2-indolylcarbonylamino)-7-phenyl-1,2,3,3a,4,5-hexahydropyrido[3,2,1-jk][1,4]benzodiazepin-4-one]	3.9	104.4	–	407	–	–	–	–
O=C(N[C@@H]1N=C(c2ccccc2)c2cccc3c2N(CC3)C1=O)c1cc2ccccc2[nH]1 [If, (+)-(4R)-4-(2-Indolycarbonylamino)-6-phenyl-1,2,3,4-tetrahydropyrrolo[3,2,1-jk][1,4]benzodiazepin-3-one]	8640	2.8	–	24000	–	–	–	–
O=C(NC1N=C(c2ccccc2)c2cccc3c2N(CC3)C1=O)c1cccc(I)c1 (centres unmarked) [Ic, 4-(3-Iodobenzoylamino)-6-phenyl-1,2,3,4-pyrrolo[3,2,1-j,k][1,4]benzodiazepin-3-one]	45	195.6	8800	–	–	–	–	–
O=C(N[C@H]1N=C(c2ccccc2)c2cccc3c2N(CC3)C1=O)c1cc2ccccc2[nH]1 [Ie, (-)-(4S)-4-(2-Indolylcarbonylamido)-6-phenyl-1,2,3,4-tetrahydropyrrolo[3,2,1-jk][1,4]benzodiazepin-3-one]	1.5	318.0	–	477	0.087	> 1000	> 11000	> 1000
O=C(NC1N=C(c2ccccc2F)c2cc(Cl)cc3c2N(CC3)C1=O)c1cc2cc(Cl)ccc2[nH]1 (centres unmarked) [Il, 8-chloro-4-[(5-chloro-2-indolyl)carbonylamino]-6-(2-fluorophenyl)-1,2,3,4-tetrahydropyrrolo[3,2,1-jk][1,4]benzodiazepin-3-one]	12.3	2552.2	21400	–	–	–	–	–
O=C(NC1N=C(c2ccccc2F)c2cccc3c2N(CC3)C1=O)c1cc2ccccc2[nH]1 (centres unmarked) [Ig]	0.023	15913	–	366	0.076	> 300	> 3900	> 1000
O=C(NC1N=C(c2ccccc2)c2cccc3c2N(CC3)C1=O)c1ccc(Cl)cc1 (centres unmarked) [Ib, 4-(4-Chlorobenzoylamino)-6-phenyl-1,2,3,4-tetrahydropyrrolo-[3,2,1-jk]benzodiazepin[1,4]-3-one]	37	83.8	3100	–	–	–	–	–
CN1C(=O)C(NC(=O)c2cc3ccccc3[nH]2)N=C(c2ccccc2)c2ccccc21 (racemic) [IIa, reference compound]	–	–	–	–	0.05	–	–	> 600
O=C(NC1N=C(c2ccccc2)c2cccc3c2N(CC3)C1=O)c1cc2ccccc2[nH]1 (centres unmarked) [Ia, 4-(indol-2-ylcarbonylamino)-phenyl-6-tetrahydro-1,2,3,4-pyrrolo[3,2,1-jk][1,4]benzodiazepin-3-one]	5.3	209.4	–	1110	0.104	> 1000	> 7600	> 1000
